The target in experiment [1] is T1, human Adenosine A3 receptor (Homo sapiens, UniProt P0DMS8).
T1 sequence (P0DMS8 1-318): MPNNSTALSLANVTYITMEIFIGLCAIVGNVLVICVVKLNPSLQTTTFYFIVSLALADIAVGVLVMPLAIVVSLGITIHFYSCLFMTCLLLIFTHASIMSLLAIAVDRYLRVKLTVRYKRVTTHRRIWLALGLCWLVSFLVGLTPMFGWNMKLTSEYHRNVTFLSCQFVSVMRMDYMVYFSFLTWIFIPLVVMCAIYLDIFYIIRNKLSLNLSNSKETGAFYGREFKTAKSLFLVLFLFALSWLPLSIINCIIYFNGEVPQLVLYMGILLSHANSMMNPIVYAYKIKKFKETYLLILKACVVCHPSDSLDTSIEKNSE
Kind of experiment: Adenosine receptor TR-FRET binding assay (CA200645 displacement), A3.

In experiment [2] the target is T2, human Adenosine A2a receptor (Homo sapiens, UniProt P29274).
T2 construct: expressed in transfected cells; host or cells: CHO cell membranes
Nature of the experiment: Adenosine receptor TR-FRET binding assay (CA200645 displacement), A2a. The following applies: 100 nM CA200645, CHO cell membranes, 2 hours at room temperature.

For experiment [3], the target named is T3, human Adenosine A2b receptor (Homo sapiens, UniProt P29275).
T3 construct: expressed in transfected cells; host or cells: CHO cell membranes
T3 sequence (P29275 1-332): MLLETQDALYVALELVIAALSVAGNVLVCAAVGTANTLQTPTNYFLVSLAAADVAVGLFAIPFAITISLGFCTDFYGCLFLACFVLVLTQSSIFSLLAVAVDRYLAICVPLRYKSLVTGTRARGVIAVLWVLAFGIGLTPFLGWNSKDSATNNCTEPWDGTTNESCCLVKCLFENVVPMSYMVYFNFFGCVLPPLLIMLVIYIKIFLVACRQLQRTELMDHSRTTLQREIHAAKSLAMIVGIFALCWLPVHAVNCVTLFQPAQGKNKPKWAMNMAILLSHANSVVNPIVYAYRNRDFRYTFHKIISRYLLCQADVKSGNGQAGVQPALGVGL
Kind of experiment: Adenosine receptor TR-FRET binding assay (CA200645 displacement), A2b. Conditions: 30 nM CA200645, CHO cell membranes, 2 hours at room temperature. A general note: TR-FRET usually uses a lanthanide donor and a delayed reading to cut background.

Experiment [4] concerns the target T4, human Adenosine A1 receptor (Homo sapiens, UniProt P30542).
T4 sequence (P30542 1-326): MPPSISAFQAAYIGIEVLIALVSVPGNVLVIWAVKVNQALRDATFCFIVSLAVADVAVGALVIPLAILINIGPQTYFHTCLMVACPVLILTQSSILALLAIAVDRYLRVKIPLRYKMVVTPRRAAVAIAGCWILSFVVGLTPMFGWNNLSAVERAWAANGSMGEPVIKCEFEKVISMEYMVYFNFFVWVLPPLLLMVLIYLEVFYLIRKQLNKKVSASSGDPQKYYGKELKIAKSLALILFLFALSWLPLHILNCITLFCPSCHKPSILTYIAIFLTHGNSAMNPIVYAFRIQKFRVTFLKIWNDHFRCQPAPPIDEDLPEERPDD
Nature of the experiment: Adenosine receptor TR-FRET binding assay (CA200645 displacement), A1.

The structures appear in SMILES notation. Where a name gives a salt, the structure may show the parent alone. Where only a bound is given, the exact number is not on record here.

T2 sequence (P29274 whole entry): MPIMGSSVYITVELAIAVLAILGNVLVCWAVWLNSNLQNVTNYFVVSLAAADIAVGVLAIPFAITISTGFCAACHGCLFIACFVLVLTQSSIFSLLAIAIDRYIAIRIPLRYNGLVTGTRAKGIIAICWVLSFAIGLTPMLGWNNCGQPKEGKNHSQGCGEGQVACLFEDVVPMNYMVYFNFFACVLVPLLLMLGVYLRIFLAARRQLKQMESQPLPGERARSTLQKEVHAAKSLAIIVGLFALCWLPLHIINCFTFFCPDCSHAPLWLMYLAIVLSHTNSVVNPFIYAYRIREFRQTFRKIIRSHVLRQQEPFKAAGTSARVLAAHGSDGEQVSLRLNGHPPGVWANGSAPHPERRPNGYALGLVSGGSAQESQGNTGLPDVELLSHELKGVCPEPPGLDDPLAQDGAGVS

As for `Cc1cc(-c2c(-c3cccc(C#N)c3)nn3ccc(CN4CCNCC4)nc23)cc(C)n1` [Example 20.1, 3-[3-(2,6-Dimethyl-4-pyridyl)-5-(piperazin-1-ylmethyl)pyrazolo[1,5-a]pyrimidin-2-yl]benzonitrile trifluoroacetate], the Ki (in general, a dissociation constant, usually derived from enzyme kinetics or from competition with a known ligand) in experiment [1] was more than 1 µM; in experiment [2] it was 0.116 µM; in experiment [3], 0.626 µM; in experiment [4], 2.53 µM.

Consider `Cc1cc(-c2c(-c3cccc(C#N)c3)nn3ccc(CN)nc23)cc(Cl)n1` [Example 21, 3-[5-(Aminomethyl)-3-(2-chloro-6-methyl-4-pyridyl)pyrazolo[1,5-a]pyrimidin-2-yl]benzonitrile], for which the Ki was more than 1 µM in experiment [1], 0.0815 µM in experiment [2], 0.102 µM in experiment [3] and 2.44 µM in experiment [4].

Turning to `Cc1cc(-c2c(-c3cccc(C#N)c3)nn3ccc(CCC(C)(C)O)nc23)cc(Cl)n1` [Example 22, 3-[3-(2-Chloro-6-methyl-4-pyridyl)-5-(3-hydroxy-3-methyl-butyl)pyrazolo[1,5-a]pyrimidin-2-yl]benzonitrile], the Ki in experiment [1] is more than 1 µM; in experiment [2], 0.001 µM; in experiment [3] it was 0.034 µM; in experiment [4], 0.141 µM.

With `Cc1cc(-c2c(-c3cccc(C#N)c3)nn3ccc(N(C)C)nc23)cc(Cl)n1` [Example 23.4], the Ki amounted to 1.98 µM in experiment [1], 0.0102 µM in experiment [2], 0.09 µM in experiment [3] and 0.163 µM in experiment [4].

Consider `Cc1cc(-c2c(-c3cccc(C#N)c3)nn3ccc(O[C@@H]4CCCNC4)nc23)cc(Cl)n1` [Example 24.1, 3-[3-(2-Chloro-6-methyl-4-pyridyl)-5-[[(3R)-3-piperidyl]oxy]pyrazolo[1,5-a]pyrimidin-2-yl]benzonitrile], for which the Ki stood at 1.65 µM in experiment [1], 0.0033 µM in experiment [2], 0.029 µM in experiment [3] and 0.009 µM in experiment [4].

As to `Cc1cc(-c2c(-c3cccc(C#N)c3)nn3ccc(N)nc23)cnc1N` [Example 26, 3-[5-Amino-3-(6-amino-5-methyl-3-pyridyl)pyrazolo[1,5-a]pyrimidin-2-yl]benzonitrile], the Ki in experiment [1] was found to be 2.43 µM; in experiment [2] it was 0.147 µM; in experiment [3], 0.409 µM; in experiment [4], 0.006 µM.

`Cc1cc(-c2c(-c3cccc(C#N)c3)nn3ccc(N)nc23)cc(F)n1` [Example 26.4, 3-[5-Amino-3-(2-fluoro-6-methyl-4-pyridyl)pyrazolo[1,5-a]pyrimidin-2-yl]benzonitrile]: the inhibition constant (Ki) worked out at 0.578 µM in experiment [1], 0.0101 µM in experiment [2], 0.016 µM in experiment [3] and 0.006 µM in experiment [4].

`Cn1cc(-c2c(-c3cccc(C#N)c3)nn3ccc(N)nc23)cn1` [Example 26.5, 3-[5-Amino-3-(1-methylpyrazol-4-yl)pyrazolo[1,5-a]pyrimidin-2-yl]benzonitrile]: the Ki stood at 0.749 µM in experiment [1], 0.105 µM in experiment [2], 1.2 µM in experiment [3] and 0.089 µM in experiment [4].

In the case of `Cc1cc(-c2c(-c3cccc(C#N)c3)nn3ccc(N)nc23)cc(C)[n+]1[O-]` [Example 27, 3-[5-Amino-3-(2,6-dimethyl-1-oxido-pyridin-1-ium-4-yl)pyrazolo[1,5-a]pyrimidin-2-yl]benzonitrile], the Ki in experiment [1] was more than 1 µM; in experiment [2], 0.0018 µM; in experiment [3], 0.002 µM; in experiment [4], 0.004 µM.

Turning to `Cc1cc(-c2c(-c3cccc(C#N)c3)nn3ccc(N)nc23)cc(C(N)=O)n1` [Example 27.2, 4-[5-Amino-2-(3-cyanophenyl)pyrazolo[1,5-a]pyrimidin-3-yl]-6-methyl-pyridine-2-carboxamide], the Ki in experiment [1] is more than 1 µM; in experiment [2], 0.0133 µM; in experiment [3] it was 0.039 µM; in experiment [4] it was 0.017 µM.

The values are drawn from patent US20230203041A1, “ANTAGONISTS OF THE ADENOSINE A2A RECEPTOR” (AdoRx Therapeutics Limited, priority 2020, published 2023).
